The target in assay [1] is T1, Serotonin 3 (5-HT3) receptor (Rattus norvegicus, UniProt P35563+Q9JJ16).
T1 sequence (P35563 whole entry): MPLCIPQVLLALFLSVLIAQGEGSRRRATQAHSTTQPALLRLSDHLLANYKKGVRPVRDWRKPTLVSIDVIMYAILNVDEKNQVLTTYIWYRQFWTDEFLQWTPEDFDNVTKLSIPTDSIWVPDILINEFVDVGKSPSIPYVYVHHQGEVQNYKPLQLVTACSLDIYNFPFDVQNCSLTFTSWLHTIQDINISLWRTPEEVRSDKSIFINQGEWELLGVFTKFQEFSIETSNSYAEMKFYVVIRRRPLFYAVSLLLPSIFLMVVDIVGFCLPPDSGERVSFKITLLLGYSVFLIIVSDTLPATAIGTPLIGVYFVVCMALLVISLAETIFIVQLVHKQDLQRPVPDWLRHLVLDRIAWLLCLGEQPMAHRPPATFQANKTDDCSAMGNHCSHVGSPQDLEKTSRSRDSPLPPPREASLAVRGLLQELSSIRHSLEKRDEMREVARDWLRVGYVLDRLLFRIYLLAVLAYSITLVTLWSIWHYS
T1 sequence (Q9JJ16 whole entry): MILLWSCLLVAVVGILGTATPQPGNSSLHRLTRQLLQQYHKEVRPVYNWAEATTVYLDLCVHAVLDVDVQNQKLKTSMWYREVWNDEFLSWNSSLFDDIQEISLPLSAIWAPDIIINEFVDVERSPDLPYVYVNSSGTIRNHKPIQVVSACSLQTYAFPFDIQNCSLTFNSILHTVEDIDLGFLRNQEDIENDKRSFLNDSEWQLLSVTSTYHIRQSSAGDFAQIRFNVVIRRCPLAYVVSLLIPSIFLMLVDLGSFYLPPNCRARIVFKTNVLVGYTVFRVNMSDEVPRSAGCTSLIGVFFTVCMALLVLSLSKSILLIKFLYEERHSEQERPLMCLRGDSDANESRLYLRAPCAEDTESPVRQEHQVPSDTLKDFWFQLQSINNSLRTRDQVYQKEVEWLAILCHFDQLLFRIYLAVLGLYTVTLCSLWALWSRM
In words: Displacement of [3H]granisetron from 5-hydroxytryptamine 3 receptor of rat cortex.

Assay [2] addresses Serotonin 3 (5-HT3) receptor (Rattus norvegicus) (UniProt P35563+Q9JJ16). As to the kind of experiment: Inhibition of the von Bezold-Jarisch reflex bradycardia induced by an iv bolus injection of 5-HT. In kind it is functional, organism-based.

Regarding `CCN1CC2CC(NC(=O)N3CC(C)(C)c4ccccc43)CC(C1)N2C` (stereo not drawn), the Ki in assay [1] is 2.51 nM. This compound displayed an Inhibitory dose in assay [2] of 0.6 µg/kg.

On to `CC(=O)N1CC2CC(NC(=O)N3CC(C)(C)c4ccccc43)CC(C1)N2C` (stereo not drawn), for which the Ki in assay [1] was 3.98 nM. This counts as single-digit nanomolar.

For the compound `CN1CC2CC(NC(=O)N3CC(C)(C)c4ccccc43)CC(C1)N2C` (stereo not drawn), the affinity in assay [1] corresponds to a Ki of 1 nM.

Consider `CCCCN1CC2CC(NC(=O)c3nn(C)c4ccccc34)CC(C1)N2C` (stereo not drawn), for which the Ki in assay [1] was 2.51 nM.

`CN1C2CC(NC(=O)c3nn(C)c4ccccc34)CC1CN(c1ccccc1)C2` (stereo not drawn): in assay [2], the Inhibitory dose worked out at 3 µg/kg.

`CCN1CC2CC(NC(=O)c3nn(C)c4ccccc34)CC(C1)N2C` (stereo not drawn) had a Ki in assay [1] of 1.58 nM. Besides, in assay [2], the Inhibitory dose stood at 0.8 µg/kg.

Take `COc1cc(N)c(Cl)cc1C(=O)NC1CC2CN(C)CC(C1)N2C` (stereo not drawn): the Inhibitory dose in assay [2] amounted to 2.5 µg/kg.

`CC(C)N1CC2CC(NC(=O)N3CC(C)(C)c4ccccc43)CC(C1)N2C` (stereo not drawn) gave a Ki in assay [1] of 1.26 nM. In assay [2], this compound showed an Inhibitory dose of 0.43 µg/kg.

`CC(C)N1CC2CC(NC(=O)c3nn(C)c4ccccc34)CC(C1)N2C` (stereo not drawn): the affinity in assay [1], expressed as Ki, was 0.794 nM. Further, in assay [2], the Inhibition stood at 0.65 µg/kg.

As for `CN1C2CNCC1CC(NC(=O)N1CC(C)(C)c3ccccc31)C2` (stereo not drawn), the Ki in assay [1] is 1 nM.

`COc1cc(N)c(Cl)cc1C(=O)NC1CC2CN(Cc3ccccc3)CC(C1)N2C` (stereo not drawn): in assay [2], the Inhibitory dose came to 0.5 µg/kg.

In the case of `CN1C2CC(NC(=O)N3CC(C)(C)c4ccccc43)CC1CN(Cc1ccccc1)C2` (stereo not drawn), the Inhibitory dose in assay [2] worked out at 1.8 µg/kg.

Compound `CCCN1CC2CC(NC(=O)c3nn(C)c4ccccc34)CC(C1)N2C` (stereo not drawn) showed a Ki in assay [1] of 3.16 nM.

`CN1C2CCCC1CC(NC(=O)c1nn(C)c3ccccc13)C2` (stereo not drawn) showed an Inhibitory dose in assay [2] of 0.7 µg/kg.

`CCCCN1CC2CC(NC(=O)N3CC(C)(C)c4ccccc43)CC(C1)N2C` (stereo not drawn): affinity in assay [1] was put at a Ki of 20 nM.

For the compound `CN1C2CC(NC(=O)c3nn(C)c4ccccc34)CC1CN(Cc1ccccc1)C2` (stereo not drawn), the Ki in assay [1] is 0.501 nM. Further, in assay [2], the Inhibitory dose amounted to 0.16 µg/kg.

On to `CN1C2CC(NC(=O)N3CC(C)(C)c4ccccc43)CC1CN(C(=O)c1ccccc1)C2` (stereo not drawn), for which affinity in assay [1] was put at a Ki of 10 nM.

In turn, `CC(C)CN1CC2CC(NC(=O)c3nn(C)c4ccccc34)CC(C1)N2C` (stereo not drawn) gave a Ki in assay [1] of 3.16 nM. This Ki lies about 3.2-fold lower than the previous one.

The values above are taken from ChEMBL document CHEMBL1150460, “Synthesis and 5-HT3 receptor antagonist potency of novel (endo) 3,9-diazabicyclo[3.3.1]nonan-7-amino derivatives” (Bioorg Med Chem Lett, 1994).
